Reference: the NIST ThermoML archive (doi:10.1021/acs.jced.7b00702)
Numbers after ± are expanded uncertainties.

Conditions: 100 kPa, Liquid; for viscosity: Falling or rolling sphere viscometry; for mass density: Vibrating tube method

CCn1cc[n+](C)c1.[Cl-].[Cl][Al]([Cl])[Cl] [1-ethyl-3-methyl-1H-imidazolium tetrachloroaluminate]
Conditions	mass density [kg/m3]	viscosity [mPa·s]
293.15 K	1299.32 ± 1.3	20.62 ± 0.19
303.15 K	1291.13 ± 1.3	15.69 ± 0.14
313.15 K	1283.05 ± 1.3	12.31 ± 0.11
323.15 K	1275.03 ± 1.3	9.952 ± 0.09
333.15 K	1267.1 ± 1.3	8.214 ± 0.074
343.15 K	1259.22 ± 1.3	6.927 ± 0.063
353.15 K	1251.41 ± 1.3	5.945 ± 0.054
